The values that follow are results of earlier work, collected in article PMC8347148, “An Evaluation of Human Induced Pluripotent Stem Cells to Test for Cardiac Developmental Toxicity” (International Journal of Molecular Sciences, 2021).

The conditions of the data set: can be as high as; cited from earlier work.

As for `CN1CCC[C@H]1c1cccnc1` [nicotine], the “nicotine concentration in fetal serum” value is not above 15.4 µM.
